Results as given in paper PMC10542788, “Discovery of a cystathionine γ-lyase (CSE) selective inhibitor targeting active-site pyridoxal 5′-phosphate (PLP) via Schiff base formation” (Scientific Reports, 2023).

Test system: ALT
Assay: ALT inhibition, coupled absorbance assay (NADH, 340 nm)
Type: biochemical
Conditions: 30 µM
Description: The selectivity of 1, 2 and PAG for rCSE over other RSS-producing enzymes, CBS and 3MST, was examined (Fig. 4a). CBS is a PLP-dependent enzyme, like CSE, and produces H2S from cysteine and homocysteine as substrates. 3MST is also an H2S-producing enzyme, but is not PLP-dependent and uses 3-mercaptopyruvate as a substrate. The amount of H2S produced by CBS or 3MST was evaluated in the presence or absence of the inhibitor by measuring the fluorescence intensity of HSip-1. […] We also examined the inhibitory activity towards two other PLP-dependent enzymes, MGL and ALT. MGL metabolizes L-methionine to α-ketobutyric acid, methanethiol and ammonia, and is inhibited by PAG[14]. MGL also produces H2S from homocysteine as a substrate, and this activity of MGL can be measured by fluorescence detection with HSip-1. […] The enzymatic activity of ALT can be assessed by means of a coupled assay using the reduction of pyruvate to L-lactate with lactate dehydrogenase and NADH and measuring the change in absorption of NADH.
An alanine aminotransferase activity assay kit (BioVision, Inc.) was used to measure the activity of ALT. A mixture of L-alanine, NADH, LDH (lactate dehydrogenase) and ALT was incubated at 37 °C for 15 min, then α-ketoglutarate was added to the mixture and the absorbance at 340 nm was measured with a microplate reader.

With `NNC(=O)C(N)=O` [Compound 1, oxamic hydrazide] the “inhibitory activity towards ALT / selectivity for CSE over ALT” value was “high selectivity for CSE over MGL and ALT”.
